Primed or numbered codes have the meaning given here. No end group written: not given here. *: point of attachment. Biotin = O=C1N[C@H]2[C@H](CS[C@H]2CCCCC(=O)*)N1; Biotin′ = not defined here
System: VEGF-D neutralizing monoclonal antibody mAb 4A5 (VDnmAb)
Experiment: ELISA of biotinylated synthetic peptides on streptavidin plates for VDnmAb binding
Conditions: 1st peptide library; 10 pmol peptide; VDnmAb 2 μg/ml; signal more than two-fold greater than background considered positive
From the text: Peptides. A series of synthetic 15-mer peptides (peptides 1 to 35, SEQ ID NOs: 4 to 38 in FIG. 4B, which overlap each other by 12 amino acids) were synthesized (Mimotopes Pty Ltd, Melbourne, Australia). The peptides encompassed the VHD of human VEGF-D (SEQ ID NO: 3, FIG. 4A). Peptide 36 (SEQ ID NO: 39) represented an artificial sequence including a FLAG tag as a positive control for a commercial anti-FLAG mAb (M2; Sigma) that was used as control for non-specific binding to peptides 1 to 35 (SEQ ID NOs: 4 to 38). Biotin was included at the N-terminal of each peptide during synthesis, except that peptide 1 (SEQ ID NO: 4, representing the N-terminal of the VHD) has biotin at the C-terminal. The four-amino acid linker “SGSG” was introduced between the N-terminal of each peptide sequence and biotin to provide more flexibility to peptides after immobilization on streptavidin plates, except peptide 1 (SEQ ID NO: 4) that included the C-terminal linker “GSG”.
ELISA. Reacti-Bind streptavidin high-binding-capacity coated plates (Pierce) were coated with 10 pmol of each peptide in PBS, blocked with 5% milk in PBS-0.1% Tween 20, and incubated with 100 μl of VEGF-D neutralizing monoclonal antibody mAb 4A5 (referred to herein as VDnmAb) or M2 at 2 μg/ml for 1 h at room temperature. Bound mAb was detected with goat anti-mouse IgG coupled with HRP. ABTS was used as the substrate, and the absorbance was read at 405 nm in a multiwell plate reader.
In this 2nd peptide library, biotin was included at the N-terminal of each peptide, and the four-amino acid linker “SGSG” was introduced between each peptide sequence and the biotin residue to provide more flexibility to peptides after immobilization on streptavidin plates. ELISA-based analysis of the 2nd peptide library was carried out as for the 1st peptide library.
Peptide 67 (SEQ ID NO: 141, the same as peptide 36, SEQ ID NO: 39 from the 1st library) and peptide 68 (SEQ ID NO: 142), both containing the FLAG tag, were used as controls. In this 3rd peptide library, biotin was included at the N-terminal of each peptide except peptides 6, 12 and 14 (SEQ ID NOs: 80, 86 and 88) which have C-terminal biotin residues. To provide more flexibility to peptides after immobilization on streptavidin plates, an amino acid linker was introduced between biotin residues and the peptide sequence: “SGSG” for N-terminal biotin; “SGS” for C-terminal biotin. ELISA-based analysis of the 3rd peptide library was carried out as for the 1st peptide library, described in Example 1.

Substance	VDnmAb binding to peptide (ELISA signal, absorbance at 405 nm)
FRCGGCCNEESLICM (Biotin-SGSGFRCGGCCNEESLICM; cysteine pairing not given here) [peptide 18 (SEQ ID NO: 21), residues 140 to 154 of human VEGF-D, N-terminal biotin and SGSG linker]	positive
VNVFRCGGCCNEESL (Biotin-SGSGVNVFRCGGCCNEESL; cysteine pairing not given here) [peptide 17 (SEQ ID NO: 20), residues 137 to 151 of human VEGF-D, N-terminal biotin and SGSG linker]	the strongest
peptide 16 (SEQ ID NO: 19): 1st library 15-mer which lacks the three C-terminal residues of peptide 17, SEQ ID NO: 20 (SGSGPPCVNVFRCGGCCNE)	does not bind VDnmAb

Same assay, conditions: 2nd peptide library; 10 pmol peptide; VDnmAb 2 μg/ml; signal more than two-fold greater than background considered positive

Substance	VDnmAb binding to peptide (ELISA signal, absorbance at 405 nm)
30 (SEQ ID NO: 69): from mouse VEGF-D, homologous to Peptide 31 (SEQ ID NO: 70): serine 150 to glycine, leucine 151 to valine (Biotin-SGSGVNVFRCGGCCNEEGV; cysteine pairing not given here)	complete loss of VDnmAb binding
FRCGGCCNEESL (Biotin-SGSGFRCGGCCNEESL; cysteine pairing not given here) [peptide 15 (SEQ ID NO: 54), residues 140 to 151 of human VEGF-D, 2nd library, N-terminal biotin and SGSG linker]	positive
NVFRCGGCCNEESL (Biotin-SGSGNVFRCGGCCNEESL; cysteine pairing not given here) [peptide 13 (SEQ ID NO: 52), residues 138 to 151 of human VEGF-D, N-terminal biotin and SGSG linker]	positive
VFRCGGCCNEESL (Biotin-SGSGVFRCGGCCNEESL; cysteine pairing not given here) [peptide 14 (SEQ ID NO: 53), residues 139 to 151 of human VEGF-D, N-terminal biotin and SGSG linker]	the strongest
VNVFRCGGCCNEESL (Biotin-SGSGVNVFRCGGCCNEESL; cysteine pairing not given here) [peptide 17 (SEQ ID NO: 20), residues 137 to 151 of human VEGF-D, N-terminal biotin and SGSG linker]	bound to VDnmAb
VPLMRCGGCCNDEGL (Biotin-SGSGVPLMRCGGCCNDEGL; not fully specified; cysteine pairing not given here) [peptide 33 (SEQ ID NO: 72), residues 78 to 92 of VEGF-A, biotin and linker]	did not bind the antibody
VSLLRCTGCCGDENL (Biotin-SGSGVSLLRCTGCCGDENL; not fully specified; cysteine pairing not given here) [peptide 35 (SEQ ID NO: 74), residues 78 to 92 of PlGF, biotin and linker]	did not bind the antibody
VSVYRCGGCCNSEGL (Biotin-SGSGVSVYRCGGCCNSEGL; not fully specified; cysteine pairing not given here) [peptide 32 (SEQ ID NO: 71), residues 157 to 171 of human VEGF-C, biotin and linker]	did not bind the antibody
VTVQRCGGCCPDDGL (Biotin-SGSGVTVQRCGGCCPDDGL; not fully specified; cysteine pairing not given here) [peptide 34 (SEQ ID NO: 73), residues 73 to 87 of VEGF-B, biotin and linker]	did not bind the antibody
peptide 18 (SEQ ID NO: 57): peptide 14 (SEQ ID NO: 53) with deletion of the leucine residue corresponding to position 151 (SGSGVFRCGGCCNEES)	complete loss of VDnmAb binding
peptide 22 (SEQ ID NO: 61): 2nd library: single mutation of cysteine in the binding region, C146S (SGSGVNVFRCGGCSNEESL)	very minor or no effect on VDnmAb binding

Same assay, conditions: 3rd peptide library; 10 pmol peptide; VDnmAb 2 μg/ml; signal more than two-fold over background considered positive

Substance	VDnmAb binding to peptide (ELISA signal, absorbance at 405 nm)
CGGCCNEESL (SGSGCGGCCNEESL) [peptide 15 (SEQ ID NO: 89)]	positive
FRCGGCCNEESL [peptide 12 (SEQ ID NO: 86)] (FRCGGCCNEESLSGS-{Biotin′}; cysteine pairing not given here)	decreases in VDnmAb binding
GGCCNEESL (SGSGGGCCNEESL) [peptide 16 (SEQ ID NO: 90)]	positive
RCGGCCNEESL [peptide 13 (SEQ ID NO: 87)] (Biotin-SGSGRCGGCCNEESL; cysteine pairing not given here)	the strongest
RCGGCCNEESL [peptide 14 (SEQ ID NO: 88)] (RCGGCCNEESLSGS-{Biotin′}; cysteine pairing not given here)	decreases in VDnmAb binding
VFRCGGCCNEESL (VFRCGGCCNEESLSGS-{Biotin′}; cysteine pairing not given here) [peptide 6 (SEQ ID NO: 80)]	decreases in VDnmAb binding
peptide 1 (SEQ ID NO: 75): 3rd library: variant of VFRCGGCCNEESL with mutation S150C (SGSGVFRCGGCCNEECL)	loss, even complete loss, of VDnmAb binding
peptide 2 (SEQ ID NO: 76): 3rd library: variant of VFRCGGCCNEESL with mutation S150A (SGSGVFRCGGCCNEEAL)	reduced VDnmAb binding somewhat
peptide 3 (SEQ ID NO: 77): 3rd library: variant of VFRCGGCCNEESL with mutation S150T (SGSGVFRCGGCCNEETL)	loss, even complete loss, of VDnmAb binding
peptide 4 (SEQ ID NO: 78): 3rd library: variant with deletion of one of N147, E148, E149, S150 (SGSGVFRCGGCCNEEL)	loss of VDnmAb binding
peptide 7 (SEQ ID NO: 81): 3rd library: mutation of residue 151 to valine (SGSGVFRCGGCCNEESV)	decreased VDnmAb binding
peptide 8 (SEQ ID NO: 82): 3rd library: mutation of residue 151 to alanine (SGSGVFRCGGCCNEESA)	decreased VDnmAb binding
peptide 9 (SEQ ID NO: 83): 3rd library: mutation V139L (SGSGLFRCGGCCNEESL)	little or no effect on VDnmAb binding
peptide 10 (SEQ ID NO: 84): 3rd library: mutation V139A (SGSGAFRCGGCCNEESL)	little or no effect on VDnmAb binding
peptide 17 (SEQ ID NO: 91): 3rd library: mutation F140Y (SGSGVYRCGGCCNEESL)	little or no effect on VDnmAb binding
peptide 18 (SEQ ID NO: 92): 3rd library: mutation F140A (SGSGVARCGGCCNEESL)	little or no effect on VDnmAb binding
peptide 19 (SEQ ID NO: 93): 3rd library: deletion of F140 (SGSGVRCGGCCNEESL)	little or no effect on VDnmAb binding
peptide 20 (SEQ ID NO: 94): 3rd library: mutation R141K (SGSGVFKCGGCCNEESL)	more pronounced effect
peptide 21 (SEQ ID NO: 95): 3rd library: mutation R141A (SGSGVFACGGCCNEESL)	little or no effect on VDnmAb binding

Same assay, conditions: 3rd peptide library; 10 pmol peptide; VDnmAb 2 μg/ml; signal more than two-fold over background considered positive; listed as peptide 5 (SEQ ID NO: 79)

Substance	VDnmAb binding to peptide (ELISA signal, absorbance at 405 nm)
VFRCGGCCNEESL (Biotin-SGSGVFRCGGCCNEESL; cysteine pairing not given here) [peptide 14 (SEQ ID NO: 53), residues 139 to 151 of human VEGF-D, N-terminal biotin and SGSG linker]	bound to VDnmAb

Reference: US20110305703A1, “ISOLATED VEGF-C AND VEGF-D PEPTIDES AND USES THEREOF” (Vegenics Pty Limited, priority 2008, published 2011)
